Patent publication US8637528B2, “Use of PDE7 inhibitors for the treatment of movement disorders” (Omeros Corporation, priority 2007, dated 2014)

Columns and labels:
Dopamine D2L receptor = Dopamine D2L receptor (Homo sapiens (Human), UniProt P14416); test: Dopamine D2L radioligand binding assay; conditions: 10.0 μM
Dopamine D3 receptor = Dopamine D3 receptor (Homo sapiens (Human), UniProt P35462); test: Dopamine D3 radioligand binding assay; conditions: 10.0 μM
Adenosine A2A receptor = Adenosine A2A receptor (Homo sapiens (Human), UniProt P29274); test: Adenosine A2A receptor radioligand binding assay
Adenosine A2A receptor, sequence (P29274 whole entry): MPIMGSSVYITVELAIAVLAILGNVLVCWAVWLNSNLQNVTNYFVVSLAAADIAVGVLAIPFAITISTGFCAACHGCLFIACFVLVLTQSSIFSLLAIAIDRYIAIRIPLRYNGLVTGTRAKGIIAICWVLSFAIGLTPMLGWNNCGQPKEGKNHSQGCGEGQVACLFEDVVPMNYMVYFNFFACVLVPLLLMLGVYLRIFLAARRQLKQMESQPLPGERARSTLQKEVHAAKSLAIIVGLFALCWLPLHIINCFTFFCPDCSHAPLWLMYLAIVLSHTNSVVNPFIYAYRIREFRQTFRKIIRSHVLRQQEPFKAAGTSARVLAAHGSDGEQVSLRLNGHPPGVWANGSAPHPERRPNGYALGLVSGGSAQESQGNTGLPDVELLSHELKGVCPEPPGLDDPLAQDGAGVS
Experimental: An Adenosine A2A receptor radioligand binding assay was carried out as described in Varani, K., et al., Br. J. Pharmacol. 117:1693-1701, 1996, with the following modifications. Human recombinant A2A receptor was expressed in HEK-293 cells. The ligand used in the assay was 0.05 μM [^3H]CGS-21680. The non-specific ligand was 50 μM NECA. The vehicle control was 1% DMSO. Compound OM69 was tested at 10 μM in incubation buffer (50 mM Tris-HCL, pH 7.4, 10 mM MgCl2, 1 mM EDTA, 2 U/mL Adenosine Deaminase). The reaction was incubated for 90 minutes at 25° C. Radioligand binding was quantitated. […]

[1] = target: Dopamine Transporter (DAT) (Homo sapiens (Human), UniProt Q01959); test: Dopamine Transporter (DAT) radioligand binding assay; conditions: 10.0 μM

Dopamine D3 receptor, sequence (P35462 whole entry): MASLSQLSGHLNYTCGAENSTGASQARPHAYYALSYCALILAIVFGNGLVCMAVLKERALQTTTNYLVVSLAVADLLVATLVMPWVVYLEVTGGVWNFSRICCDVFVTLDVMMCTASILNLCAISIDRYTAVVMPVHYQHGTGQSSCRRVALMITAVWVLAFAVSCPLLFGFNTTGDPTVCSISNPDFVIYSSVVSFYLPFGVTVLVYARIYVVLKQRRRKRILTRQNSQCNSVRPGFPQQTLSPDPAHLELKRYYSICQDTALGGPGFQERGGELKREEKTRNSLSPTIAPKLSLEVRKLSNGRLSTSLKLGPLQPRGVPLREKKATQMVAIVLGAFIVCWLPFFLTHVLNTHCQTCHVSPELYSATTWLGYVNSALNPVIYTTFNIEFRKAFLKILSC
Dopamine D2L receptor, sequence (P14416 whole entry): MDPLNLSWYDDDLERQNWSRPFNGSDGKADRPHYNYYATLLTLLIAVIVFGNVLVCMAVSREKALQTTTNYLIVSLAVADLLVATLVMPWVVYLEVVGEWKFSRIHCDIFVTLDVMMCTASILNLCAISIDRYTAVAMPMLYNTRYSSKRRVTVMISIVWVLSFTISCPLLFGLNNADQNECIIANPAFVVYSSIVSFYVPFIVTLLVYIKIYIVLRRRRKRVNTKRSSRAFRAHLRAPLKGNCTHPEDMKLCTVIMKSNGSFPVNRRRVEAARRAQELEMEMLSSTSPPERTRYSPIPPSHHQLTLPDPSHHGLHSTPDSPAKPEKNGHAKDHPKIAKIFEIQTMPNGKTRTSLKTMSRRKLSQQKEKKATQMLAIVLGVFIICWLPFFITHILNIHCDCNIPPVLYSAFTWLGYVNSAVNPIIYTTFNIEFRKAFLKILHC

For `COc1cc(N)ccc1-c1cc2c(c(=O)[nH]1)C(C1CCCCC1)N=[N+]2C` (centres unmarked) [OM69], the “percent inhibition of ligand binding to Dopamine D2L” value (Dopamine D2L receptor) was 4.0%, the “percent inhibition of ligand binding to Dopamine D3” value (Dopamine D3 receptor) was −13.0% and the “percent inhibition of ligand binding to Adenosine A2A Receptor” value (Adenosine A2A receptor; 10.0 μM) was 41%. The “percent occupation of A2A receptors” value (Adenosine A2A receptor; brain level 8.5 to 17 nM (dose 0.1 mg/kg), using IC50 of 10 μM) was “about 0.17%” and the “percent inhibition of ligand binding to Dopamine Transporter (DAT)” value [1] was 18.0%.
